Experimental data as given in the NIST ThermoML archive (doi:10.1016/j.jct.2006.11.001).
± gives the expanded uncertainty stated by the source.

Assays:
[1] = molar heat capacity at constant pressure; conditions: Liquid, thermal relaxation method
[2] = molar heat capacity at constant pressure; xn = mol fraction of the nth substance listed; conditions: Liquid, thermal relaxation method

Compound: CO [methanol]
- molar heat capacity at constant pressure ([1]; 280 K, 100 kPa): 77.22 ± 3.2 J/K/mol
- molar heat capacity at constant pressure ([1]; 280 K, 1000 kPa): 74.02 ± 3.2 J/K/mol
- molar heat capacity at constant pressure ([1]; 280 K, 5000 kPa): 73.7 ± 5.8 J/K/mol
- molar heat capacity at constant pressure ([1]; 320 K, 100 kPa): 87.15 ± 1.3 J/K/mol
- molar heat capacity at constant pressure ([1]; 320 K, 1000 kPa): 85.87 ± 3.2 J/K/mol
- molar heat capacity at constant pressure ([1]; 320 K, 5000 kPa): 84.27 ± 2.6 J/K/mol
- molar heat capacity at constant pressure ([1]; 360 K, 1000 kPa): 97.41 ± 1.9 J/K/mol
- molar heat capacity at constant pressure ([1]; 360 K, 5000 kPa): 94.2 ± 1.9 J/K/mol
- molar heat capacity at constant pressure ([1]; 360 K, 10000 kPa): 94.52 ± 2.6 J/K/mol
- molar heat capacity at constant pressure ([1]; 360 K, 15000 kPa): 97.09 ± 3.8 J/K/mol

Compound: CO [methanol] + O
- molar heat capacity at constant pressure ([2]; 280 K, 100 kPa, x1 = 0.0496): 81.21 ± 1.5 J/K/mol
- molar heat capacity at constant pressure ([2]; 280 K, 100 kPa, x1 = 0.101): 82.78 ± 1.6 J/K/mol
- molar heat capacity at constant pressure ([2]; 280 K, 100 kPa, x1 = 0.1936): 82.72 ± 1.7 J/K/mol
- molar heat capacity at constant pressure ([2]; 280 K, 100 kPa, x1 = 0.2606): 82.56 ± 1.7 J/K/mol
- molar heat capacity at constant pressure ([2]; 280 K, 100 kPa, x1 = 0.4949): 79.36 ± 2 J/K/mol
- molar heat capacity at constant pressure ([2]; 280 K, 100 kPa, x1 = 0.7943): 77.85 ± 2.3 J/K/mol
- molar heat capacity at constant pressure ([2]; 280 K, 1000 kPa, x1 = 0.0496): 81.39 ± 1.5 J/K/mol
- molar heat capacity at constant pressure ([2]; 280 K, 1000 kPa, x1 = 0.101): 83.75 ± 1.6 J/K/mol
- molar heat capacity at constant pressure ([2]; 280 K, 1000 kPa, x1 = 0.1936): 85 ± 2.1 J/K/mol
- molar heat capacity at constant pressure ([2]; 280 K, 1000 kPa, x1 = 0.2606): 85.38 ± 2.2 J/K/mol
- molar heat capacity at constant pressure ([2]; 280 K, 1000 kPa, x1 = 0.4949): 82.11 ± 2.5 J/K/mol
- molar heat capacity at constant pressure ([2]; 280 K, 1000 kPa, x1 = 0.7943): 80.76 ± 2.9 J/K/mol
- molar heat capacity at constant pressure ([2]; 280 K, 5000 kPa, x1 = 0.0496): 82.14 ± 4.1 J/K/mol
- molar heat capacity at constant pressure ([2]; 280 K, 5000 kPa, x1 = 0.101): 83.95 ± 4.3 J/K/mol
- molar heat capacity at constant pressure ([2]; 280 K, 5000 kPa, x1 = 0.1936): 85.2 ± 4.1 J/K/mol
- molar heat capacity at constant pressure ([2]; 280 K, 5000 kPa, x1 = 0.2606): 84.52 ± 4.3 J/K/mol
- molar heat capacity at constant pressure ([2]; 280 K, 5000 kPa, x1 = 0.4949): 79.61 ± 5 J/K/mol
- molar heat capacity at constant pressure ([2]; 280 K, 5000 kPa, x1 = 0.7943): 76.97 ± 5.8 J/K/mol
- molar heat capacity at constant pressure ([2]; 320 K, 100 kPa, x1 = 0.0496): 80.27 ± 0.75 J/K/mol
- molar heat capacity at constant pressure ([2]; 320 K, 100 kPa, x1 = 0.101): 84.53 ± 0.78 J/K/mol
- molar heat capacity at constant pressure ([2]; 320 K, 100 kPa, x1 = 0.1936): 87.9 ± 0.83 J/K/mol
- molar heat capacity at constant pressure ([2]; 320 K, 100 kPa, x1 = 0.2606): 89.5 ± 0.87 J/K/mol
- molar heat capacity at constant pressure ([2]; 320 K, 100 kPa, x1 = 0.4949): 89.35 ± 1 J/K/mol
- molar heat capacity at constant pressure ([2]; 320 K, 100 kPa, x1 = 0.7943): 89.22 ± 1.2 J/K/mol
- molar heat capacity at constant pressure ([2]; 320 K, 1000 kPa, x1 = 0.0496): 79.52 ± 2.2 J/K/mol
- molar heat capacity at constant pressure ([2]; 320 K, 1000 kPa, x1 = 0.101): 83.75 ± 2.3 J/K/mol
- molar heat capacity at constant pressure ([2]; 320 K, 1000 kPa, x1 = 0.1936): 88.52 ± 2.5 J/K/mol
- molar heat capacity at constant pressure ([2]; 320 K, 1000 kPa, x1 = 0.2606): 89.72 ± 2.6 J/K/mol
- molar heat capacity at constant pressure ([2]; 320 K, 1000 kPa, x1 = 0.4949): 89.1 ± 3 J/K/mol
- molar heat capacity at constant pressure ([2]; 320 K, 1000 kPa, x1 = 0.7943): 87.76 ± 2.9 J/K/mol
- molar heat capacity at constant pressure ([2]; 320 K, 5000 kPa, x1 = 0.0496): 81.95 ± 1.9 J/K/mol
- molar heat capacity at constant pressure ([2]; 320 K, 5000 kPa, x1 = 0.101): 85.5 ± 1.9 J/K/mol
- molar heat capacity at constant pressure ([2]; 320 K, 5000 kPa, x1 = 0.1936): 89.76 ± 2.1 J/K/mol
- molar heat capacity at constant pressure ([2]; 320 K, 5000 kPa, x1 = 0.2606): 91.67 ± 2.2 J/K/mol
- molar heat capacity at constant pressure ([2]; 320 K, 5000 kPa, x1 = 0.4949): 88.6 ± 2.5 J/K/mol
- molar heat capacity at constant pressure ([2]; 320 K, 5000 kPa, x1 = 0.7943): 87.76 ± 2.9 J/K/mol
- molar heat capacity at constant pressure ([2]; 360 K, 1000 kPa, x1 = 0.0496): 81.02 ± 1.1 J/K/mol
- molar heat capacity at constant pressure ([2]; 360 K, 1000 kPa, x1 = 0.101): 84.72 ± 1.2 J/K/mol
- molar heat capacity at constant pressure ([2]; 360 K, 1000 kPa, x1 = 0.1936): 90.8 ± 1.2 J/K/mol
- molar heat capacity at constant pressure ([2]; 360 K, 1000 kPa, x1 = 0.2606): 92.75 ± 1.3 J/K/mol
- molar heat capacity at constant pressure ([2]; 360 K, 1000 kPa, x1 = 0.4949): 94.34 ± 1.5 J/K/mol
- molar heat capacity at constant pressure ([2]; 360 K, 1000 kPa, x1 = 0.7943): 94.47 ± 1.8 J/K/mol
- molar heat capacity at constant pressure ([2]; 360 K, 5000 kPa, x1 = 0.0496): 80.83 ± 1.1 J/K/mol
- molar heat capacity at constant pressure ([2]; 360 K, 5000 kPa, x1 = 0.101): 84.53 ± 1.2 J/K/mol
- molar heat capacity at constant pressure ([2]; 360 K, 5000 kPa, x1 = 0.1936): 90.59 ± 1.2 J/K/mol
- molar heat capacity at constant pressure ([2]; 360 K, 5000 kPa, x1 = 0.2606): 92.97 ± 1.3 J/K/mol
- molar heat capacity at constant pressure ([2]; 360 K, 5000 kPa, x1 = 0.4949): 93.59 ± 1.5 J/K/mol
- molar heat capacity at constant pressure ([2]; 360 K, 5000 kPa, x1 = 0.7943): 94.47 ± 1.8 J/K/mol
- molar heat capacity at constant pressure ([2]; 360 K, 10000 kPa, x1 = 0.0496): 82.52 ± 1.1 J/K/mol
- molar heat capacity at constant pressure ([2]; 360 K, 10000 kPa, x1 = 0.101): 86.28 ± 1.2 J/K/mol
- molar heat capacity at constant pressure ([2]; 360 K, 10000 kPa, x1 = 0.1936): 92.87 ± 1.2 J/K/mol
- molar heat capacity at constant pressure ([2]; 360 K, 10000 kPa, x1 = 0.2606): 95.35 ± 1.3 J/K/mol
- molar heat capacity at constant pressure ([2]; 360 K, 10000 kPa, x1 = 0.4949): 95.09 ± 1.5 J/K/mol
- molar heat capacity at constant pressure ([2]; 360 K, 10000 kPa, x1 = 0.7943): 95.92 ± 1.8 J/K/mol
- molar heat capacity at constant pressure ([2]; 360 K, 15000 kPa, x1 = 0.0496): 82.52 ± 2.2 J/K/mol
- molar heat capacity at constant pressure ([2]; 360 K, 15000 kPa, x1 = 0.101): 86.67 ± 2.3 J/K/mol
- molar heat capacity at constant pressure ([2]; 360 K, 15000 kPa, x1 = 0.1936): 92.25 ± 2.5 J/K/mol
- molar heat capacity at constant pressure ([2]; 360 K, 15000 kPa, x1 = 0.2606): 95.57 ± 2.6 J/K/mol
- molar heat capacity at constant pressure ([2]; 360 K, 15000 kPa, x1 = 0.4949): 95.58 ± 3 J/K/mol
- molar heat capacity at constant pressure ([2]; 360 K, 15000 kPa, x1 = 0.7943): 95.63 ± 3.5 J/K/mol
